Assays:
[1] = test system: velvetleaf; experiment: Test B pre/postemergence velvetleaf; assay type: in vivo, Abutilon theophrasti; conditions: for Plant response rating, Velvetleaf: Rate 250 g/ha
Summary of the method: (§1)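 Response is a visual 0-to-10 score relative to untreated plants, where 0 means no effect and 10 means complete control, taken twelve to sixteen days after application. Treatments went onto soil at planting and onto foliage of 1- to 4-leaf plants, using a surfactant-containing non-phytotoxic solvent.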

[2] = test system: bamyardgrass; experiment: Test B flood test barnyardgrass; assay type: in vivo, Echinochloa crus-galli
Summary of the method: (§2)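 Each value is a visual injury score relative to controls, with 10 meaning complete control and 0 no effect. Evaluation took place twelve to sixteen days after the 2-leaf-stage plants were treated and kept in the greenhouse.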

[3] = test system: soybean; experiment: Test B pre/postemergence soybean; assay type: in vivo, Glycine max
Summary of the method: as §1

[4] = test system: rape; experiment: Test B pre/postemergence rape; assay type: in vivo, Brassica napus
Summary of the method: as §1

[5] = test system: cocklebur; experiment: Test B pre/postemergence cocklebur; assay type: in vivo, Xanthium strumarium
Summary of the method: as §1

[6] = test system: surinam grass; experiment: Test B pre/postemergence surinam grass; assay type: in vivo, Brachiaria decumbens
Summary of the method: as §1

[7] = test system: sugar beet; experiment: Test B pre/postemergence sugar beet; assay type: in vivo, Beta vulgaris; conditions: for Plant response rating, Sugarbeets: Rate 250 g/ha
Summary of the method: as §1

[8] = test system: rice; experiment: Test B flood test rice; assay type: in vivo, Oryza sativa
Summary of the method: as §2

[9] = test system: bedstraw; experiment: Test B pre/postemergence bedstraw; assay type: in vivo, Galium aparine
Summary of the method: as §1

[10] = test system: corn; experiment: Test B pre/postemergence corn; assay type: in vivo, Zea mays
Summary of the method: as §1

[11] = test system: morningglory; experiment: Test B pre/postemergence morningglory; assay type: in vivo, Ipomoea hederacea
Summary of the method: as §1

[12] = test system: smallflower flatsedge; experiment: Test B flood test smallflower flatsedge; assay type: in vivo, Cyperus difformis
Summary of the method: as §2

[13] = test system: wild oat; experiment: Test B pre/postemergence wild oat; assay type: in vivo, Avena fatua; conditions: for Plant response rating, Wild oats: Rate 250 g/ha
Summary of the method: as §1

[14] = test system: pigweed; experiment: Test B pre/postemergence pigweed; assay type: in vivo, Amaranthus retroflexus
Summary of the method: as §1

[15] = test system: blackgrass; experiment: Test B pre/postemergence blackgrass; assay type: in vivo, Alopecurus myosuroides
Summary of the method: as §1

[16] = test system: purple nutsedge; experiment: Test B pre/postemergence purple nutsedge; assay type: in vivo, Cyperus rotundus
Summary of the method: as §1

[17] = Postemergence, Rate 125 g/ha, scale of 0 to 10 where 0 is no effect and 10 is complete control
[18] = Preemergence, Rate 62 g/ha, scale 0 to 10 (0 no effect, 10 complete control)
[19] = Preemergence, Rate 125 g/ha, 0 is no effect, 10 is complete control
[20] = Preemergence, scale of 0 to 10 where 0 is no effect and 10 is complete control
[21] = Preemergence, Rate 500 g/ha, scale 0 to 10 (0 no effect, 10 complete control)
[22] = Rate 62 g/ha, Postemergence, scale of 0 to 10 where 0 is no effect and 10 is complete control
[23] = Postemergence, scale 0 to 10, 0 is no effect, 10 is complete control
[24] = Rate 500 g/ha, Postemergence, scale 0 to 10, 0 no effect, 10 complete control
[25] = Postemergence, Rate 62 g/ha, scale 0 to 10, 0 is no effect, 10 is complete control
[26] = Rate 250 g/ha, headed Pre-emergence (flood test species), scale 0 to 10 (0 no effect, 10 complete control)
[27] = Rate 500 g/ha, headed Pre-emergence (flood test species), scale 0 to 10 (0 no effect, 10 complete control)
[28] = Rate 500 g/ha, listed under Postemergence (flood test species), scale 0 to 10, 0 no effect, 10 complete control
[29] = Rate 1000 g/ha, Pre-emergence (as headed), scale 0 to 10
[30] = Preemergence, Rate 125 g/ha, scale 0 to 10 (0 no effect, 10 complete control)
[31] = Preemergence, Rate 250 g/ha, scale of 0 to 10 where 0 is no effect and 10 is complete control
[32] = Rate 250 g/ha, Postemergence, scale 0 to 10, 0 is no effect, 10 is complete control
[33] = Postemergence, Rate 250 g/ha, scale 0 to 10, 0 no effect, 10 complete control
[34] = Rate 125 g/ha, Postemergence, scale 0 to 10, 0 no effect, 10 complete control
[35] = Postemergence (flood test species), Rate 125 g/ha, scale of 0 to 10 where 0 is no effect and 10 is complete control
[36] = Rate 62 g/ha, Postemergence section, flood test species, scale of 0 to 10 where 0 is no effect and 10 is complete control
[37] = Rate 250 g/ha, Postemergence (flood test), scale 0 to 10, 0 is no effect, 10 is complete control
[38] = Rate 2000 g/ha, Pre-emergence (as headed), scale 0 to 10

CCn1c(=O)on(C(=O)N(c2ccc(F)cc2F)C(C)C)c1=O [Compound 116]
Velvetleaf plant response rating [1, 17]: 4
Velvetleaf plant response rating [1, 18]: 8
Velvetleaf plant response rating (0 to 10 scale) [1, 19]: 9
Plant response rating, Velvetleaf [1, 20]: 10
Velvetleaf plant response rating [1, 21]: 10
Velvetleaf plant response rating [1, 22]: 4
Plant response rating, Velvetleaf [1, 23]: 7
Velvetleaf plant response rating [1, 24]: 8
Barnyardgrass plant response rating [2, 25]: 0
Barnyardgrass plant response rating ([2]; Rate 125 g/ha, Postemergence section (flood test species), scale 0 to 10, 0 no effect, 10 complete control): 0
Barnyardgrass plant response rating [2, 26]: 0
Plant response rating, Barnyardgrass [2, 27]: 0
Barnyardgrass plant response rating [2, 28]: 4
Barnyardgrass plant response rating [2, 29]: 0
Barnyardgrass plant response rating ([2]; Rate 2000 g/ha, Pre-emergence (as headed), scale 0 to 10, 0 no effect, 10 complete control): 9
Barnyardgrass plant response rating ([2]; flood test, listed under Postemergence, Rate 250 g/ha, scale 0 to 10, 0 no effect, 10 complete control): 0
Soybean plant response rating [3, 17]: 6
Soybean plant response rating [3, 18]: 0
Plant response rating, Soybean [3, 30]: 7
Plant response rating, Soybean [3, 31]: 9
Soybean plant response rating [3, 21]: 9
Soybean plant response rating [3, 22]: 3
Plant response rating, Soybean [3, 32]: 6
Soybean plant response rating [3, 24]: 8
Rape plant response rating [4, 17]: 0
Rape plant response rating [4, 33]: 8
Rape plant response rating [4, 18]: 6
Plant response rating, Rape [4, 30]: 9
Plant response rating, Rape [4, 31]: 10
Rape plant response rating [4, 21]: 10
Rape plant response rating [4, 22]: 0
Rape plant response rating [4, 24]: 9
Cocklebur plant response rating [5, 17]: 0
Cocklebur plant response rating [5, 33]: 3
Cocklebur plant response rating [5, 18]: 0
Plant response rating, Cocklebur [5, 30]: 0
Plant response rating, Cocklebur [5, 31]: 0
Cocklebur plant response rating [5, 21]: 5
Cocklebur plant response rating [5, 22]: 0
Cocklebur plant response rating [5, 24]: 5
B. signalgrass plant response rating [6, 25]: 8
B. signalgrass plant response rating [6, 33]: 9
B. signalgrass plant response rating [6, 18]: 4
Plant response rating, B. signalgrass [6, 30]: 8
Plant response rating, B. signalgrass [6, 31]: 10
B. signalgrass plant response rating [6, 21]: 10
B. signalgrass plant response rating [6, 34]: 9
B. signalgrass plant response rating ([6]; Rate 500 g/ha, Postemergence, scale of 0 to 10 where 0 is no effect and 10 is complete control): 9
Sugarbeets plant response rating [7, 17]: 3
Sugarbeets plant response rating [7, 18]: 9
Sugarbeets plant response rating (0 to 10 scale) [7, 19]: 10
Plant response rating, Sugarbeets [7, 20]: 10
Sugarbeets plant response rating [7, 21]: 10
Sugarbeets plant response rating [7, 22]: 2
Plant response rating, Sugarbeets [7, 23]: 8
Sugarbeets plant response rating [7, 24]: 8
Rice plant response rating [8, 35]: 0
Rice plant response rating [8, 36]: 0
Plant response rating, Rice [8, 37]: 0
Rice plant response rating [8, 26]: 0
Plant response rating, Rice [8, 27]: 0
Rice plant response rating [8, 28]: 0
Rice plant response rating [8, 29]: 0
Rice plant response rating [8, 38]: 4
Bedstraw plant response rating [9, 25]: 0
Bedstraw plant response rating [9, 33]: 9
Bedstraw plant response rating [9, 18]: 2
Plant response rating, Bedstraw [9, 30]: 8
Plant response rating, Bedstraw [9, 31]: 9
Bedstraw plant response rating [9, 21]: 9
Bedstraw plant response rating [9, 34]: 6
Corn plant response rating [10, 17]: 0
Corn plant response rating [10, 33]: 2
Corn plant response rating [10, 18]: 0
Plant response rating, Corn [10, 30]: 2
Plant response rating, Corn [10, 31]: 6
Corn plant response rating [10, 21]: 9
Corn plant response rating [10, 22]: 0
Corn plant response rating [10, 24]: 7
Morningglory plant response rating [11, 17]: 4
Morningglory plant response rating [11, 33]: 4
Morningglory plant response rating [11, 18]: 0
Plant response rating, Morningglory [11, 30]: 0
Plant response rating, Morningglory [11, 31]: 4
Morningglory plant response rating [11, 21]: 8
Morningglory plant response rating [11, 22]: 2
Morningglory plant response rating [11, 24]: 7
S. Flatsedge plant response rating [12, 35]: 0
S. Flatsedge plant response rating ([12]; Pre-emergence, Rate 1000 g/ha, scale 0 to 10 (0 no effect, 10 complete control)): 0
S. Flatsedge plant response rating [12, 36]: 0
Plant response rating, S. Flatsedge [12, 37]: 0
S. Flatsedge plant response rating [12, 26]: 0
Plant response rating, S. Flatsedge [12, 27]: 0
S. Flatsedge plant response rating [12, 28]: 0
S. Flatsedge plant response rating [12, 38]: 9
Wild oats plant response rating [13, 17]: 7
Wild oats plant response rating [13, 18]: 7
Wild oats plant response rating (0 to 10 scale) [13, 19]: 7
Plant response rating, Wild oats [13, 20]: 10
Wild oats plant response rating [13, 21]: 10
Wild oats plant response rating [13, 22]: 3
Plant response rating, Wild oats [13, 23]: 7
Wild oats plant response rating [13, 24]: 8
Redroot pigweed plant response rating [14, 17]: 0
Redroot pigweed plant response rating [14, 18]: 10
Plant response rating, Redroot pigweed [14, 30]: 10
Plant response rating, Redroot pigweed [14, 31]: 10
Redroot pigweed plant response rating [14, 21]: 10
Redroot pigweed plant response rating [14, 22]: 0
Plant response rating, Redroot pigweed [14, 32]: 8
Redroot pigweed plant response rating [14, 24]: 8
Blackgrass plant response rating [15, 17]: 9
Blackgrass plant response rating [15, 33]: 9
Blackgrass plant response rating [15, 18]: 9
Plant response rating, Blackgrass [15, 30]: 9
Plant response rating, Blackgrass [15, 31]: 10
Blackgrass plant response rating [15, 21]: 10
Blackgrass plant response rating [15, 22]: 9
Blackgrass plant response rating [15, 24]: 9
Nutsedge plant response rating [16, 17]: 7
Nutsedge plant response rating [16, 33]: 8
Nutsedge plant response rating [16, 18]: 0
Plant response rating, Nutsedge [16, 30]: 0
Plant response rating, Nutsedge [16, 31]: 0
Nutsedge plant response rating [16, 21]: 0
Nutsedge plant response rating [16, 22]: 5
Nutsedge plant response rating [16, 24]: 9
